Data taken from US7521478B2, “Total synthesis of myriaporones” (Pharma Mar, S.A.U., priority 2002, dated 2009).

Legend:
Type in all cases: cell-based
[1] = tested on: HeLa-APL; assay: Inhibition of cell growth by colorimetric SRB assay, HELA-APL; details: Homo sapiens; for GI50: 48 h; for CC50: HELA-APL, 48 hours exposure, cell killing, read-out: LC50 (the source's name)
Source text: (§1) The finality of these assays is to interrupt the growth of a “in vitro” tumor cell culture by means a continued exhibition of the cells to the sample to be testing.
(§2) Inhibition of Cell Growth by Colorimetric Assay.
(§3) A colorimetric type of assay, using sulforhodamine B (SRB) reaction has been adapted for a quantitative measurement of cell growth and viability (following the technique described by P. A. Skehan, et al., J. Natl. CancerInst. 1990, 82, 1107-1112).
(§4) This form of assay employs 96 well cell culture microplates of 9 mm diameter (T. Mosmann et al., J. of Immuological Methods 1983, 65, 55-63; G. T. Faircloth et al., J. of Tissue and Culture Methods 1988, 11, 201-205). Most of the cell lines are obtained from American Type Culture Collection (ATCC) derived from different human cancer types.
(§5) Cells are maintained in RPMI 1640 10% FBS, supplemented with 0.1 g/L penicillin and 0.1 g/L streptomycin sulfate and then incubated at 37° C., 5% CO2 and 98% humidity. For the experiments, cells were harvested from subconfluent cultures using trypsin and resuspended in fresh medium before plating.
(§6) Cells are seeded in 96 well microtiter plates, at 5×10^3 cells per well in aliquots of 195 μL medium, and they are allowed to attach to the plate surface by growing in drug free medium for 18 hours. Afterward, samples are added in aliquots of 5 μL in a ranging from 10 to 10^−8 μg/mL, dissolved in DMSO/EtOH/PBS (0.5:0.5:99). After 48 hours exposure, the antitumor effect are measured by the SRB methodology: cells are fixed by adding 50 μL of cold 50% (wt/vol) trichloroacetic acid (TCA) and incubated for 60 minutes at 4° C. Plates are washed with deionizer water and dried. One hundred μl of SRB solution (0.4% wt/vol in 1% acetic acid) is added to each microliter well and incubated for 10 minutes at room temperature. Unbound SRB is removed by washing with 1% acetic acid. Plates are air dried and bound stain is solubilized with Tris buffer. Optical densities are read on a automated spectrophotometric plate reader at a single wavelength of 490 nm.
(§7) The values for mean +/−SD of data from triplicate wells are calculated. Some parameters for cellular responses can be calculated: GI=growth inhibition, TGI=total growth inhibition (cytostatic effect) and LC=cell killing (cytotoxic effect).

[2] = tested on: DU-145; assay: Inhibition of cell growth by colorimetric SRB assay, DU-145; details: Homo sapiens, DU-145, 48 hours exposure; for CC50: cell killing, read-out: LC50 (the source's name); for IC (total growth inhibition): read-out: TGI
Source text: as §1, §2, §3, §4, §5, §6, §7

[3] = tested on: LNCaP; assay: Inhibition of cell growth by colorimetric SRB assay, LN-caP; details: Homo sapiens, LN-caP, 48 hours exposure; for CC50: cell killing, read-out: LC50 (the source's name); for IC (total growth inhibition): read-out: TGI
Source text: as §1, §2, §3, §4, §5, §6, §7

[4] = tested on: HeLa; assay: Inhibition of cell growth by colorimetric SRB assay, HELA; details: Homo sapiens, HELA, 48 hours exposure; for CC50: cell killing, read-out: LC50 (the source's name); for IC (total growth inhibition): read-out: TGI
Source text: as §1, §2, §3, §4, §5, §6, §7

[5] = tested on: IGROV-ET; assay: Inhibition of cell growth by colorimetric SRB assay, IGROV-ET; details: Homo sapiens, IGROV-ET, 48 hours exposure; for CC50: cell killing, read-out: LC50 (the source's name); for IC (total growth inhibition): read-out: TGI
Source text: as §1, §2, §3, §4, §5, §6, §7

[6] = tested on: HT-29; assay: Inhibition of cell growth by colorimetric SRB assay, HT-29; details: Homo sapiens, HT-29, 48 hours exposure; for CC50: cell killing, read-out: LC50 (the source's name); for IC (total growth inhibition): read-out: TGI
Source text: as §1, §2, §3, §4, §5, §6, §7

[7] = tested on: A-549; assay: Inhibition of cell growth by colorimetric SRB assay, A-549; details: Homo sapiens, A549, A-549, 48 hours exposure; for CC50: cell killing, read-out: LC50 (the source's name); for IC (total growth inhibition): read-out: TGI
Source text: as §1, §2, §3, §4, §5, §6, §7

[8] = tested on: SK-MEL-28; assay: Inhibition of cell growth by colorimetric SRB assay, MEL-28; details: Homo sapiens, SK-MEL-28, MEL-28, 48 hours exposure; for CC50: cell killing, read-out: LC50 (the source's name); for IC (total growth inhibition): read-out: TGI
Source text: as §1, §2, §3, §4, §5, §6, §7

[9] = tested on: K-562; assay: Inhibition of cell growth by colorimetric SRB assay, K-562; details: Homo sapiens, K562, K-562, 48 hours exposure; for CC50: cell killing, read-out: LC50 (the source's name); for IC (total growth inhibition): read-out: TGI
Source text: as §1, §2, §3, §4, §5, §6, §7

[10] = tested on: LoVo; assay: Inhibition of cell growth by colorimetric SRB assay, LOVO; details: Homo sapiens, LOVO, 48 hours exposure; for LC50: cell killing, read-out: LC50; for IC (total growth inhibition): read-out: TGI
Source text: as §1, §2, §3, §4, §5, §6, §7

[11] = tested on: IGROV; assay: Inhibition of cell growth by colorimetric SRB assay, IGROV; details: Homo sapiens, 48 hours exposure; for CC50: cell killing, read-out: LC50 (the source's name); for IC (total growth inhibition): read-out: TGI
Source text: as §1, §2, §3, §4, §5, §6, §7

[12] = tested on: LoVo-Dox; assay: Inhibition of cell growth by colorimetric SRB assay, LOVO-DOX; details: Homo sapiens, LOVO-DOX, 48 hours exposure; for LC50 (concentration for 50% cell killing): read-out: LC50; for IC (total growth inhibition): read-out: TGI
Source text: as §1, §2, §3, §4, §5, §6, §7

[13] = tested on: PANC-1; assay: Inhibition of cell growth by colorimetric SRB assay, PANC-1; details: Homo sapiens, PANC-1, 48 hours exposure; for CC50: cell killing, read-out: LC50 (the source's name); for IC (total growth inhibition): read-out: TGI
Source text: as §1, §2, §3, §4, §5, §6, §7

C/C=C\[C@H](C)[C@H]1OC1(C)[C@@H](O[Si](C)(C)C(C)(C)C)[C@@H](COC(C)=O)C(=O)[C@H](COC(C)=O)[C@@H](CC(=O)CC)OC(C)=O (stereo partly shown) [Compound 45]
GI50 [1]: 16.3 µM | CC50 [1]: 16.3 µM | GI50 [2]: 16.3 µM | CC50 [2]: 16.3 µM | IC (total growth inhibition) [2]: 16.3 µM | GI50 [3]: 8.34 µM | CC50 [3]: 16.3 µM | IC (total growth inhibition) [3]: 16.3 µM | GI50 [4]: 16.3 µM | CC50 [4]: 16.3 µM | IC (total growth inhibition) [4]: 16.3 µM | GI50 [5]: 15.8 µM | CC50 [5]: 16.3 µM | IC (total growth inhibition) [5]: 16.3 µM | GI50 [6]: 16.3 µM | CC50 [6]: 16.3 µM | IC (total growth inhibition) [6]: 16.3 µM | GI50 [7]: 16.3 µM | CC50 [7]: 16.3 µM | IC (total growth inhibition) [7]: 16.3 µM | GI50 [8]: 16.3 µM | CC50 [8]: 16.3 µM | IC (total growth inhibition) [8]: 16.3 µM | GI50 [9]: 16.3 µM | CC50 [9]: 16.3 µM | IC (total growth inhibition) [9]: 16.3 µM | GI50 [10]: 8.26 µM | LC50 [10]: 16.3 µM | IC (total growth inhibition) [10]: 16.3 µM | GI50 [11]: 16.3 µM | CC50 [11]: 16.3 µM | IC (total growth inhibition) [11]: 16.3 µM | GI50 [12]: 10.5 µM | LC50 (concentration for 50% cell killing) [12]: 16.3 µM | IC (total growth inhibition) [12]: 16.3 µM | GI50 [13]: 8.24 µM | CC50 [13]: 16.3 µM | IC (total growth inhibition) [13]: 16.3 µM

C/C=C\[C@H](C)[C@H]1OC1(C)[C@@H](O[Si](C)(C)C(C)(C)C)[C@@H](COC(C)=O)C(=O)[C@H](CO)[C@@H](O)CC(=O)CC (stereo partly shown) [Compound 46]
GI50 [1]: 10.1 µM | CC50 [1]: 18.9 µM | GI50 [2]: 9.65 µM | CC50 [2]: 18.9 µM | IC (total growth inhibition) [2]: 18.9 µM | GI50 [3]: 5.24 µM | CC50 [3]: 15.6 µM | IC (total growth inhibition) [3]: 9.06 µM | GI50 [4]: 8.81 µM | CC50 [4]: 18.9 µM | IC (total growth inhibition) [4]: 18.9 µM | GI50 [5]: 7.39 µM | CC50 [5]: 18.9 µM | IC (total growth inhibition) [5]: 18.9 µM | GI50 [6]: 15 µM | CC50 [6]: 18.9 µM | IC (total growth inhibition) [6]: 18.9 µM | GI50 [7]: 13.4 µM | CC50 [7]: 18.9 µM | IC (total growth inhibition) [7]: 18.9 µM | GI50 [8]: 9.89 µM | CC50 [8]: 18.9 µM | IC (total growth inhibition) [8]: 18.9 µM | GI50 [9]: 12 µM | CC50 [9]: 18.9 µM | IC (total growth inhibition) [9]: 18.9 µM | GI50 [10]: 4.37 µM | LC50 [10]: 18.9 µM | IC (total growth inhibition) [10]: 10 µM | GI50 [11]: 7.74 µM | CC50 [11]: 18.9 µM | IC (total growth inhibition) [11]: 18.9 µM | GI50 [12]: 6.15 µM | LC50 (concentration for 50% cell killing) [12]: 18.9 µM | IC (total growth inhibition) [12]: 18.9 µM | GI50 [13]: 7.38 µM | CC50 [13]: 18.9 µM | IC (total growth inhibition) [13]: 18.9 µM
